Assay results: patent US7655810B2, “Phosphine transition metal complex, method for producing the same, and antitumor agent containing the same” (Nippon Chemical Industrial Co., Ltd., priority 2005, dated 2010)

Columns and labels:
[1] = tested on: female Sprauge-Dawley SPF rats; experiment: Toxicity test by single oral administration to rats; type: in vivo, rat
Protocol: After female Sprauge-Dawley SPF rats (CrJ: CD (SD)) were quarantined and acclimated for about a week, healthy 8-week-old rats were selected in groups of five rats. The rats was fasted overnight before administration, and single oral doses of 20, 50, 100, and 300 mg/kg of the phosphine gold complex, and 10, 20, 50, and 100 mg/kg of cisplatin dissolved in corn oil were administrated the respective rats. The rats were observed 10 and 30 minutes and 1, 2, and 4 hours after administration, and further observed daily until the 14th day.

[2] = tested on: HL-60 (human acute myelocytic leukemia cells); experiment: Evaluation of antitumor activity, MTT viable cell count (modified Mosmann method); type: cell-based; settings: read-out: IC50 (50% inhibitory concentration from viable cell count), HL-60 cells, 24 hours culture, average of at least three measured values
Protocol: Cisplatin was also evaluated as a comparative example by the same method.
HL-60 (human acute myelocytic leukemia cells) was used as cancer cells. The cells were cultured in Rosewell Park Memorial Institute medium (RPMI 1640) supplemented with 10% fetal bovine serum, 1% antibiotic, and an antifungal agent in an atmosphere of 5% carbon dioxide in a moist incubator at 37° C.
The cells were washed with PBS. After the cell count was determined, a suspension (1×10^5 cells/mL) was prepared with the same medium. The suspension was seeded at a density of […] in a sterile 96-well microplate.
The prepared solutions were respectively added to the wells and cultured in the incubator for 24 hours.
The viable cell count was determined by a modified Mosmann method (T. Mosmann, J. Immunol. Method (1983) 65, 55-63). More specifically, a solution of a tetrazolium salt (3,[4,5-dimethylthiazole-2-yl]-2,5-diphenyltetrazolium bromide, MTT) was added to the wells. The wells were cultured for another 3 hours under the same conditions. Formazan crystals formed by the enzyme activity of mitochondria in the cells were dissolved in 0.04 mol/L HCl isopropyl alcohol solution, and the absorbance of each well was measured at 595 nm with a microplate reader (Bio-Rad 550). The background noises were canceled by subtracting the absorbance at 630 nm from the absorbance at 595 nm to obtain a viable cell count. […] For the calculation for IC50, at least three measured values obtained under the same conditions were averaged.

Substance: Bis(1,2-bis((2R,5R)-2,5-(dimethylphosphorano)benzene))gold (I) Chloride [Example 4]
- Change in general conditions, body weight and internal organs ([1]; single oral administration, over the period of the test (14 days)): no specific change in general conditions, body weight, and internal organs was observed
- Survival of rats ([1]; single oral doses of 20, 50, 100 and 300 mg/kg, until the 14th day): did not die even at the 14th day
- IC50 [2]: 542 nM

Substance: Bis(1,2-bis((2S,5S)-2,5-(dimethylphosphorano)benzene))gold (I) Chloride [Example 3]
- IC50 [2]: 3550 nM

Substance: Bis((+)-1,2-bis((2R,5R)-2,5-dimethylphosphorano)ethane)gold (I) Chloride [Example 1]
- IC50 [2]: 2750 nM

Substance: Bis((−)-1,2-bis((2S,5S)-2,5-dimethylphosphorano)ethane)gold (I) Chloride [Example 2]
- IC50 [2]: 1660 nM
